The values that follow come from patent US7429473B2, “Diacylglycerol acyltransferase genes, proteins, and uses thereof” (Michigan State University, priority 2003, dated 2008).

This test relates to Euonymus alata diacylglycerol acetyltransferase (AcDAGAT), native enzyme activity in cell free homogenate of endosperm plus embryo. As to the kind of experiment: AcDAGAT assay with [1-14C]acetyl-CoA in cell free homogenate (CFH) of developing Euonymus alata seeds. Type of test: biochemical. On the procedure:
Characterization of acyltransferase activity by in vitro assays. Acyltransferase activity was assayed by incubating [^14C]acetyl-CoA with cell free extracts from developing Euonymus alata seeds and exogenous 1,2-diacylglycerol (DAG). Total lipids were extracted, radioactivity assayed, then the amount of label in the 1,2-diacyl-3-acetin fraction determined by TLC. There was a very high (greater than about 20-fold), largely soluble acetyl-CoA hydrolase activity that competed with the transferase for substrate.
All procedures were carried out on ice or at 4° C. Frozen embryo and endosperm tissue was added to two volumes of chilled buffer containing 0.3 M sucrose, 10 mM NaF, 5 mM MgCl2, 2 mM dithiothreitol, 1 mM EDTA and 40 mM Hepes -NaOH (pH 7.4), homogenized, and filtered through two layers of Miracloth. The residue was rehomogenized in two more volumes of buffer and filtered. The filtrates were combined and constitute the cell free homogenate (CFH). The CFH was frozen and stored at −70° C. until used and typically contained 12-17 mg protein/ml. Protein concentrations were estimated using the Bio-Rad protein assay, which is based on the Bradford method (1976), using bovine serum albumin as the standard.
The standard (Ac)DAGAT assay contained [1-^14C]acetyl-CoA (100 μM, 200,000 d.p.m.) plus 140 μl of homogenization buffer in a total volume of 200 μl. 1,2-dioleoyl-sn-glycerol (50 μg, 0.4 mM) was added as 1 μl of ethanol solution. The assay was initiated by adding 20 μl of CFH. The reaction was run at room temperature (25° C.) for 1S min and terminated by the addition of hot isopropanol (1 ml). Lipids were extracted with hexane and isopropanol as described by Hara and Radin (1978). The [^14C]lipid residue was dissolved in hexane and an aliquot assayed for radioactivity by liquid scintillation counting. The standard long-chain DAGAT assay contained 20 μM [1-^14C]palmitoyl-CoA and 20-40 μl of CFH and was run for 30 minutes: all other aspects were as for acetyl DAGAT assays.
Incubation of cell free homogenates (CFH) from developing Euonymus alata endosperm plus embryo tissues with [^14C]acetyl-CoA produced labeled lipids. […] Long-chain TAG elutes ahead of Ac-TAG in this solvent system. When this labeled band was recovered and analyzed by C 18 reversed-phase TLC, the radioactivity migrated with the mass bands corresponding to the major Ac-TAG molecular species, namely C16/C18 and C18/C18. When a unique exogenous diacylglycerol, 1,2-dihexanoyl-sn-glycerol, was added to the assays, a novel band appeared that co-chromatographed with the synthetic 3-acetyl-1,2-dihexanoin standard in both normal and reverse phase TLC systems. The migration of the standard was confirmed by GC analysis of recovered fractions from the TLC plates. […]

Turning to `CC(=O)SCCNC(=O)CCNC(=O)[C@H](O)C(C)(C)COP(=O)(O)OP(=O)(O)OC[C@H]1O[C@@H](n2cnc3c(N)ncnc32)[C@H](O)[C@@H]1OP(=O)(O)O` [acetyl-CoA], the Km (Lineweaver-Burke reciprocal plot, CFH, 25° C.) was found to be 100 µM. Also, the “Vmax (estimate from acetyl-CoA concentration curve)” value (acetyl-CoA concentration curve, cell free extracts of developing seeds) is on record as 120 nmoles/hour/gram fresh weight seed tissue. Besides, the Vmax (acetyl-CoA varied, Lineweaver-Burke reciprocal plot, CFH) is listed as 2.5 nmoles/min/gfw.

With `CCCCCCCC/C=C\CCCCCCCC(=O)OC[C@H](CO)OC(=O)CCCCCCC/C=C\CCCCCCCC` [sn-1,2-diolein, 1,2-dioleoyl-sn-glycerol], for the setting “0.1-1.2 mM sn-1,2-diolein added, endogenous DAG present”, the “average enhancement of AcDAGAT activity by exogenous sn-1,2-diolein” value was 30%.

The Km is the substrate concentration at which the rate is half of its maximum.
